Test system: C2C12 cells
Test: Western blot of UPRmt, prohibitins and cell cycle proteins in TAP-treated C2C12 cells
Assay type: cell-based, mouse
Settings: 50 μg/ml TAP, FIG. 7
Method: Western blotting. C2C12 cells were lysed in a buffer composed of 50 mM Tris, 150 mM KCl, EDTA 1 mM, NP40 1%, nicotinamide 5 mM, sodium butyrate 1 mM and protease inhibitors cocktail (Roche) at pH 7,4. Proteins were separated by SDS-PAGE and transferred onto nitrocellulose membranes. Blocking and antibody incubations were performed in 3% BSA. The following primary antibodies were used: anti-cleavage caspase 3 (Cell Signalling); Anti-γH2AX (Millipore); anti-β-actin (Sigma). All secondary antibodies were from Jackson Immunoresearch. Antibody detection reactions were developed by enhanced chemiluminescence (Advansta, Calif., USA) using x-ray films or imaged using the c300 imaging system (Azure Biosystems). The following primary antibodies were used: anti-HSP60 (Enzo Life Science); anti-PHB (Biolegend); anti-PHB2 (Santa Cruz); anti-CKD4 (Novus biologicals); anti-CCND1 (Santa Cruz); anti-CCND3 (Santa Cruz); anti-HSP90 (BD Biosciences); HSP70 (Abcam); anti-MT-CO1 (Bio legend); anti-ATP5A (Bio legend); anti-Grp78 (Abcam); and anti-CLPP (Sigma).

## CS(=O)(=O)c1ccc([C@@H](O)[C@@H](CO)NC(=O)C(Cl)Cl)cc1 [thiamphenicol]
  UPRmt induction: UPR^mt induction
  cell cycle gene expression: induced
  prohibitins expression: induced
